In patent US20100150985A1, “Dental Implant, Endodontic Instrument, and Dental Filling Material Coated with a Peptide-Based Antimicrobial and Methods of Using and Making the Same” (priority 2008, published 2010):

What was measured:
Staphylococcus aureus = test: in-vitro assay of immobilized peptide on 316L stainless steel pins; format: cell-based; details: peptide covalently bonded to parylene coated stainless steel pins, after ethylene oxide sterilization; data not shown
Source text: Medical standard alloy 316L stainless steel pins were coated with an antimicrobial peptide layer to determine the efficacy of an immobilized antimicrobial peptide. The pins were coated with a tie layer. A parylene coating containing a reactive molecule specific for the N-terminus region of the peptide (“Photopolymer”) was then applied over the tie layer. The peptide WLBU-2 (SEQ ID NO. 179) was applied to the parylene coating and exposed to UV light to facilitate covalent bonding of the peptide with the parylene coating. Parylene coated stainless steel pins and non-coated stainless steel pins were used as controls. All samples and controls were subjected to ethylene oxide sterilization. The coated samples were placed in 75% relative humidity overnight.

[1] = retention of antimicrobial/biological activity after sterilization; details: peptide coated on a substrate, ethylene oxide sterilization
Source text: In a useful embodiment of the present invention, the antimicrobial peptides may retain antibacterial activity after a dental device coated with the antimicrobial, peptide is sterilized.

RRWVRRVRRVWRRVVRVVRRWVVRR (RRWVRRVRRVWRRVVRVVRRWVRR; Artificial peptide derived from HIV-1) [WLBU-2, Lytic Base Unit peptide]
efficacy of immobilized antimicrobial peptide (Staphylococcus aureus): efficacy against Staphylococcus aureus | antimicrobial activity after sterilization [1]: retained antimicrobial activity
